# “Also recorded” adds a separate entry of the source.
# Experiments:
# [1] = tested on: retinal photoreceptors; experiment: Intravitreal injection in rat models of retinal degeneration (tunicamycin; P23H rhodopsin); assay type: in vivo
# Method: Based on known rat vitreous volumes, 2 μl was injected intravitreally into each eye. Tm ([…] final concentration) plus/minus KIRA6 (10 μM final concentration) was injected into SD rats at P21 with an equivalent amount of DMSO as a vehicle control. Retinas were collected at 48 and 72 hrs after injections in Trizol (Invitrogen) for qPCR analysis. Eyes were examined by optical coherence tomography (OCT) 7 days post injection and subsequently collected for morphological analysis. […]
# Mice were anaesthetized with 1.5-3% isoflurane, eyes were dilated with 2.5% phenylephrine hydrochloride and 1% tropicamide, and corneas were kept moist with regular application of 2.5% methylcellulose. Eyes were examined using a Micron III retinal imaging system (Phoenix Research Labs). Spectral domain OCT images were acquired with a Micron Image Guided OCT System (Phoenix Research Labs) by averaging 10 to 50 scans.
# Outer nuclear layers (ONL) were quantified as previously described (Lewin, A. S. et al., Nature medicine 4, 967-971 (1998)). Briefly, rats were euthanized by CO2 inhalation and their eyes were immediately enucleated and immersed in 2% paraformaldehyde and 2.5% glutaraldehyde in phosphate buffered saline. […] ONL thickness was measured at 54 locations around the retina using Bioquant image analysis (Bioquant; R&M Biometrics).
# [2] = tested on: pancreatic islets from C57BL/6 mice; experiment: Pancreatic islets treated with ER stress inducer (Tm); assay type: cell-based, mouse
# Method: FIG. 30. KIRA6 inhibits IRE1α autophosphorylation, breaks oligomers, reduces RNase activity, and protects cells from entry into apoptosis. (A) Structure of KIRA6. (B) RNase activities of IRE1α* under varying [KIRA6]; half-maximum effective concentration (EC50) values were determined by fitting normalized fluorescence intensities (mean±s.d., n=3). (C) Inhibition of IRE1α* kinase activity in vitro by KIRA6; IC50 values were determined by fitting percent phosphorylation. […] (E) Immunoblots of IRE1α* (WT) incubated with DMSO or KIRA6 (200 μM) followed by treatment with the crosslinker DSS (250 μM); quantification is on the right. (F) Agarose gel of XBP1 cDNA amplicons from INS-1 cells pre-treated with indicated concentrations of KIRA6 for 1 h, followed by 0.5 μg/ml Tm for 8 h. […] (H) KIRAs reduce entry of INS1-1 cells into apoptosis. (I) Immunofluorescence of islets from 10 wk old C57BL/6 mice treated with 0.5 μg/mL Tm plus/minus 0.5 μM KIRA6 for 16 hr. Co-stained for DAPI, insulin, and TUNEL; Quantification of TUNEL positive β-cells (white arrows) normalized to DAPI-positive cells is shown. […] (K) Model of how KIRA6 prevents the terminal UPR by inhibiting IRE1α. […]
# [3] = tested on: endogenous IRE1α
# [4] = tested on: INS-1 cells; experiment: Terminal UPR endpoints and apoptosis in cells under ER stress; assay type: cell-based, rat
# Description: Using rat insulinoma (INS-1) cells that have a well-developed ER and secrete insulin, the duration and magnitude of ER stress that triggers apoptosis were quantified. Two variables-concentration of ER stress inducer (e.g. Thapsigargin-Tg) and time of exposure to the agent—are directly linked to the percentage of cells entering apoptosis (FIG. 28, A and B). Such regimes can be defined for other ER stress inducers such as the glycosylation inhibitor, tunicamycin (Tm) (FIG. 28,C). Increasing ER stress causes progressive increases in endogenous IRE1α phosphorylation, increases in XBP1 mRNA splicing (FIG. 28, E), depletion through endonucleolytic decay of the ER-localized mRNA, Ins1, which encodes proinsulin (FIG. 28, F), and induction of the pro-apoptotic transcription factor, CHOP (FIG. 28, G).
# KIRAs break high-order oligomerization of IRE1α kinase domains, attenuate RNAse activity, and reduce entry of cells into the Terminal UPR.
# A model of KIRA6-mediated cytoprotection is shown (FIG. 30, J); it posits that the type II kinase inhibitor, KIRA6, reduces kinase/RNAse homo-oligomerization on the cytosolic face of IRE1α, which consequently reduces RNase hyperactivity under ER stress, preventing pro-apoptotic ER-localized mRNA decay and granting cells extended reprieve from programmed cell death.
# [5] = target: T1, IRE1α* (Homo sapiens, UniProt O75460); settings: in vitro
# T1 sequence (O75460 with tags, fused parts or gaps): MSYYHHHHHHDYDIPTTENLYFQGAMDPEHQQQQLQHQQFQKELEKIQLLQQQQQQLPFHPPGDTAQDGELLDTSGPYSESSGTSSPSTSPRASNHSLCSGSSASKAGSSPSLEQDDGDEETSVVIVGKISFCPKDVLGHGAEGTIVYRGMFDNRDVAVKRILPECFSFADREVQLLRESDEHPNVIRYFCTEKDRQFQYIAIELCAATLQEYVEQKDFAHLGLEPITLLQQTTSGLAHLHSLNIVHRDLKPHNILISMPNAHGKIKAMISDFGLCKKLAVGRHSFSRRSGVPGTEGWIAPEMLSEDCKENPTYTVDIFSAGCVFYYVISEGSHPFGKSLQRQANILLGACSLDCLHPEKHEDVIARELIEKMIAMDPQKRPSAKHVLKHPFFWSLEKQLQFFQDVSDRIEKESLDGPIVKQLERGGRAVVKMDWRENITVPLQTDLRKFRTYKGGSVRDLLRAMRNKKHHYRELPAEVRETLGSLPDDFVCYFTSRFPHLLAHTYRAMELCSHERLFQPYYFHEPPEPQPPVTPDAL
# [6] = target: Src (Homo sapiens, UniProt P12931); experiment: Kinase panel counter-screen; assay type: biochemical; settings: tested against 12 kinases of the panel
# Chain of Src (P12931 whole entry, species assumed): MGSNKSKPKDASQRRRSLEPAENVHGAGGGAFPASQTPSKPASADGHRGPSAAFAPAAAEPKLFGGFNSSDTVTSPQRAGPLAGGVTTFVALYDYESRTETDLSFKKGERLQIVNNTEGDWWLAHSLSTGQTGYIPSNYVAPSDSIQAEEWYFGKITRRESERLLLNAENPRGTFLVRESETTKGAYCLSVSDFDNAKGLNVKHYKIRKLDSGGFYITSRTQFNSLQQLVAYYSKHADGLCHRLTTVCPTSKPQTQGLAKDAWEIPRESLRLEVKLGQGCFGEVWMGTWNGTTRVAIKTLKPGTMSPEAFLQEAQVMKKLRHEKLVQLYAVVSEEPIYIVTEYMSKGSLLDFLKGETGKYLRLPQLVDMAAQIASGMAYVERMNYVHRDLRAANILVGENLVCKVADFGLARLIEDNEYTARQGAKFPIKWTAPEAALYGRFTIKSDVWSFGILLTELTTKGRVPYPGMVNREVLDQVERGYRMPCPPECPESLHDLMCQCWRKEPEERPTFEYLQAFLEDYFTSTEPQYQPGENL
# [7] = target: T1, IRE1α*; experiment: IRE1α* autophosphorylation kinase assay ([γ-32P]ATP, autoradiography); settings: in vitro
# Method: Inhibitors (initial concentration=80 μM, 2-fold serial dilutions) were incubated with IRE1α in cleavage buffer (20 mM Hepes at pH 7.5, 0.05% Triton X100, 50 mM KOAC, 1 mM Mg(OAC)2, 1 mM DTT) for 20 min, followed by incubation with 10 μCi [γ-^32P]ATP (3000 Ci/mmol, Perkin Elmer) at RT for 30 min. Samples were then separated by SDS-PAGE, and autoradiographed. The auto-phosphorylation level were quantified by setting the band intensity of IRE1α* without compound treatment as 1 and the background as 0.
# [8] = target: Abl (Homo sapiens, UniProt P00519); experiment: Kinase panel counter-screen; assay type: biochemical; settings: tested against 12 kinases of the panel
# Chain of Abl (P00519 whole entry, species assumed): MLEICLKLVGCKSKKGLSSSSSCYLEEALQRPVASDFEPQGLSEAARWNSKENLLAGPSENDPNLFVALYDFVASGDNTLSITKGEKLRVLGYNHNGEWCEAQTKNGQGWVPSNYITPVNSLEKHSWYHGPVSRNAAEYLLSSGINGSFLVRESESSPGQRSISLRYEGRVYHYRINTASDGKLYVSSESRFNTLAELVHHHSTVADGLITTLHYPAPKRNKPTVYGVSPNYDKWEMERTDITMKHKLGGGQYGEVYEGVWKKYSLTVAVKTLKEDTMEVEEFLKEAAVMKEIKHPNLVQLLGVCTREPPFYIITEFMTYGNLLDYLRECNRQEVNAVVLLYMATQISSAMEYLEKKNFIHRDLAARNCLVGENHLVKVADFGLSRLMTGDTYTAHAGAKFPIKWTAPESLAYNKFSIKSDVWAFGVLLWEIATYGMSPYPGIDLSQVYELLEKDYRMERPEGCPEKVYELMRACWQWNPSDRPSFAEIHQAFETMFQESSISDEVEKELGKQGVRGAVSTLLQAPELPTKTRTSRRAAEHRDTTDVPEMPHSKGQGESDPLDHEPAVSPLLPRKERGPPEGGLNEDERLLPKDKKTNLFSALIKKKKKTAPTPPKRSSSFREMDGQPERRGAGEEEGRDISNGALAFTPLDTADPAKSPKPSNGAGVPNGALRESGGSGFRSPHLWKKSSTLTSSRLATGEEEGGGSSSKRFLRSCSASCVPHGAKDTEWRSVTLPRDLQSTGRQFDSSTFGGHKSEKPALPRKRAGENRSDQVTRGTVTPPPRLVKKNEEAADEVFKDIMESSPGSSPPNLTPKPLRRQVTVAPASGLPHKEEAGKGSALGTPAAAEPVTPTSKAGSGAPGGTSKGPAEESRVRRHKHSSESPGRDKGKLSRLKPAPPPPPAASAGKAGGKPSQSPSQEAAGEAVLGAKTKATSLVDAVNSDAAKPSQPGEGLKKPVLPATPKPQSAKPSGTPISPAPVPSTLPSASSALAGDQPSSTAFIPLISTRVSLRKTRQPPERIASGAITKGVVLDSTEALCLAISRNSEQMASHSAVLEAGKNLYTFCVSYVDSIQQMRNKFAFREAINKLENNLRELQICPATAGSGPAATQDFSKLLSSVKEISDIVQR
# [9] = target: T1, IRE1α*; experiment: IRE1α* DSS cross-linking to determine oligomer to monomer ratio; settings: saturating compound (200 μM), DSS 250 μM
# Method: The reaction was quenched by addition of 50 mM Tris-HCl (pH 7.5). The samples were then boiled, resolved on SDS-PAGE, and immunoblotted for IRE1α with an anti-IRE1α antibody, (visualization and quantification with a LI-COR Odyssey scanner).
# [10] = tested on: mouse embryonic fibroblasts (MEFs); experiment: Cytoprotection in mouse embryonic fibroblasts; assay type: cell-based
# [11] = target: T2, IRE1α* (WT) (Homo sapiens, UniProt O75460); experiment: In vitro cleavage of pre-miR-17 by IRE1α*; assay type: biochemical
# T2 construct: 6-His-tag (N); made in house; host or cells: SF9 insect cells (Bac-to-Bac baculovirus)
# T2 sequence (O75460 with tags, fused parts or gaps): as the sequence (O75460 with tags, fused parts or gaps) above
# Description: FIG. 31. […] Sequence legend (FIG. 31B): SEQ ID NOs:11-15 (in order top to bottom); (FIG. 31C): SEQ ID NO:16.
# Described herein is the characterization of four select miRs that decay in vivo upon IRE1α hyperactivation. These are miR-17, miR-34a, miR-96, and miR-125b. WT-IRE1α directly cleaved pre-miR-17 in vitro at sites distinct from those cleaved by DICER, as mapped by primer extension. The scission sites of pre-miR-17 are identical to those of XBP1 mRNA—(G/C)—and diverge at the flanking regions. Thus, by reducing levels of pre-miRs, IRE1α antagonizes DICER action to reduce cellular levels of the corresponding mature miRs. Intriguingly, IRE1α* (I642G), which can be activated by 1NM-PP1 to cleave XBP1 mRNA in vitro, can also cleave pre-miR-17 under 1NM-PP1. An RNAse mutant, IRE1α* (N906A), is compromised for cleavage of pre-miR-17 (FIG. 31, A-C). […] As IRE1α homo-oligomerizes in the ER membrane in proportion to the concentration of unfolded proteins in the ER lumen, it progressively trans-autophosphorylates. Furthermore, salt bridges between phospho-amino acid groups and other residues reinforce higher-order homo-oligomerization of kinase/RNAse domains, as was shown using yeast IRE1. Thus, as IRE1α protein clusters into higher-order oligomers, it acquires increasing activity towards its RNA substrates. […]
structure (smiles),measurement,setting,value
"CC(C)(C)c1nc(-c2ccc(NC(=O)Nc3cccc(C(F)(F)F)c3)c3ccccc23)c2c(N)nccn12 [KIRA6, 1-(4-(8-amino-3-tert-butylimidazo[1,5-a]pyrazin-1-yl)naphthalen-1-yl)-3-(3-(trifluoromethyl)phenyl)urea]",outer nuclear layer (ONL) thickness vs DMSO,"[1]; P23H-1 rats at P30, intravitreal 10 μM",higher thickness
same,photoreceptor loss / viability and function,"[1]; intravitreal, rat models of retinal degeneration caused by ER stress",protects viability and preserves function of retinal photoreceptors; also recorded: prevents photoreceptor loss
same,TXNIP protein accumulation,[2]; C57BL/6 islets exposed to ER stress inducers,prevents TXNIP protein accumulation
same,cytoprotection of pancreatic islets,[2]; islets treated with Tm,cytoprotective effects
same,endogenous IRE1α-mediated XBP1 mRNA splicing,"[3]; INS-1, provoked by Tm",inhibits endogenous IRE1α-mediated XBP1 mRNA splicing
same,endogenous IRE1α auto-phosphorylation,"[3]; in vivo (cells), FIG. 30D",inhibits endogenous IRE1α auto-phosphorylation in a dose-dependent manner
same,ER-localized endonucleolytic decay of Ins1 mRNA,[4]; ER stress,inhibits ER-localized endonucleolytic decay of Ins1 mRNA at lower doses of the drug than needed to inhibit XBP1 mRNA splicing
same,caspase 2 accumulation and cleavage,[4]; FIG. 31F,reduces caspase 2 accumulation and cleavage
same,mature miR-17 levels,"[4]; in vivo (cells), FIG. 31E",rescues mature miR-17 levels
same,terminal UPR endpoints / entry into apoptosis,[4]; pre-treatment before ER stress inducers,all these terminal UPR endpoints are curtailed
same,modulation of IRE1α* RNase activity (XBP1 RNA cleavage),[5],inhibits IRE1α* RNase and kinase activities with similar IC50s; also recorded: dose-dependently reduces kinase autophosphorylation and XBP1 splicing activity
same,off-target kinase inhibition,[6],off-target inhibition observed
same,inhibition of IRE1α* autophosphorylation,[7],dose-dependently reduces kinase autophosphorylation
same,off-target kinase inhibition,[8],off-target inhibition observed
same,IRE1α* oligomer/monomer ratio (oligomerization state),[9],stabilizes the monomeric state; also recorded: reduces concentration-dependent oligomerization
same,cytoprotective effects,[10]; Ire1α−/− MEFs,absent
same,cytoprotective effects,[10]; WT and Xbp1−/− MEFs,still demonstrable
same,cleavage of pre-miR-17 by IRE1α*,[11],dose-dependently inhibits IRE1α* (WT) cleavage of pre-miR-17; also recorded: prevents cleavage of pre-miR-17 by IRE1α* in vitro

# — patent publication US11613544B2, “Substituted imidazo[1,5-a]pyrazines for modulation of IRE1” (THE REGENTS OF THE UNIVERSITY OF CALIFORNIA, priority 2012, dated 2023)
